Like-named read-outs stand apart in the source and are kept apart here.
What was measured:
[1] = Uptake and excretion from red cabbage broth, human self-experiment (24 h urine, LC-MS/MS); format: in vivo; conditions: male, 500 mL red cabbage broth, oral, n = 3, mean ± SD, read-out: recovery in collected urine within 24 h compared to the amount of intake
Experimental: To obtain the GLS degradation products allyl HTT and 4-MSOB HTT in the food matrix, a kitchen practice approach was applied. Therefore, 1.2 kg of fresh conventional red cabbage (Brassica oleracea var. capitata f. rubra) bought in a supermarket were cut into approximately 4 × 4 × 4 cm pieces and boiled for 1 h in 3 L of tap water without additives in a stainless-steel pot with a glass lid on a kitchen stove. After cooling to room temperature, three male authors of this study (27–39 years) drank 500 mL of the red cabbage boiling solution (broth) without red cabbage pieces. […] In total, 950 μL of 1:1 diluted red cabbage boiling solution was measured in 3 different ways (each prepared as duplicates): (1) Spiked with 50 μL water, (2) spiked with 50 μL of a solution with concentrations of 1 μM for allyl HTT and 5 μM for 4-MSOB HTT, or (3) spiked with 50 μL of a solution with concentrations of 3 μM for allyl HTT and 10 μM for 4-MSOB HTT. Urine samples were measured in three different ways (each prepared as duplicates): 200 μL of undiluted urine was spiked with (1) 1 μL of water, (2) 1 μL of a solution with concentrations of 4 μM for allyl HTT and 8 μM for 4-MSOB HTT, or (3) 1.5 μL of a solution with concentrations of 4 μM for allyl HTT and 8 μM for 4-MSOB HTT. […]

HepG2 cells = assay: Metabolite formation in medium after 24 h incubation with HepG2 cells (HPLC-UV, qToF); format: in vitro ADME, human; conditions: 100 μM, 24 h with HepG2 cells, vs spiked medium without cells
Experimental: Additionally, the removed non-spiked and spiked medium after 24 h of cell incubation was measured by the UPLC-DAD system (see Section Stability of 4-Hydroxythiazolidine-2-Thiones in a Stomach Model) and HPLC method 2 at 280 ± 2 nm and after 10-fold pre-concentration, using solid-phase extraction (Chromabond®, C18, 3 mL/500 mg, Macherey-Nagel) by an HPLC-DAD-ESI-qToF system (Agilent 1290 Infinity II for the binary pump, Agilent 1290 Infinity for autosampler, degasser, column oven, Agilent 1260 Infinity for DAD detector, and Agilent 1260 Infinity II, for an isocratic pump for adding reference mass solution) using A = water and B = MeCN: 0 to 3 min 2% B, an increase to 14 min up to 98% B, holding for 5.4 min followed by a decrease to 2% B at 20 min, and re-equilibration with 2% B for 4.5 min, using a flow rate of 300 μL/min, Agilent Zorbax Eclipse Plus C8 column (see Section Stability of 4-Hydroxythiazolidine-2-Thiones in a Stomach Model), and a column oven temperature of 35°C. […]

[2] = Determination of log P (octanol/water); format: physicochemical; conditions: room temperature; for concentration ratio in the octanol phase compared to the water phase: 18 h, triplicates; for logP at 18 h: octanol/water
Experimental: For the determination of log P of the HTTs, two solutions were used: water saturated with octanol and octanol saturated with water. […] The spiked octanol-water mixture was vortexed for 30 s and the mixture was incubated for 18 h at room temperature to obtain analyte equilibrium distribution. For determination of the log P-value, 50 μL of the water phase was taken and measured by HPLC-UV at 274 ± 2 nm with HPLC method 2 (see Section Stability of 4-Hydroxythiazolidine-2-Thiones in a Stomach Model) with an injection volume of 10 μL. The analyte concentration in the water phase was determined by using external calibration. The relative analyte content in the water phase was calculated by using the following equation:
analyte content in water phase in % =measured concentration in water phase of the mixture/2 · concentration in pure water reference ·100%
The relative analyte content in the octanol phase was calculated at 100% minus the relative analyte concentration in the water phase. The reported results are the mean ± SD of the three determined log P-values for the three repetitions.

[3] = inverse exposure: spiked in the lower compartment, 2 min
[4] = inverse exposure: spiked in the lower compartment, 1 h
[5] = inverse exposure: spiked in the lower compartment, 2 h
[6] = inverse exposure: spiked in the lower compartment, 24 h
[7] = spiked in the upper compartment, 2 min
[8] = spiked in the upper compartment, 1 h
[9] = spiked in the upper compartment, 2 h
[10] = spiked in the upper compartment, 24 h

SMILES | dose excreted [1] | newly formed metabolites in spiked medium (LC-UV chromatogram) (HepG2 cells) | concentration ratio in the octanol phase compared to the water phase [2] | logP at 18 h [2] | Concentration ratio of compartment non-spiked vs. spiked (Caco-2 cell layer; [3]) | Concentration ratio of compartment non-spiked vs. spiked (Caco-2 cell layer; [4]) | Concentration ratio of compartment non-spiked vs. spiked (Caco-2 cell layer; [5]) | Concentration ratio of compartment non-spiked vs. spiked (Caco-2 cell layer; [6]) | Concentration ratio of compartment non-spiked vs. spiked (Caco-2 cell layer; [7]) | Concentration ratio of compartment non-spiked vs. spiked (Caco-2 cell layer; [8]) | Concentration ratio of compartment non-spiked vs. spiked (Caco-2 cell layer; [9]) | Concentration ratio of compartment non-spiked vs. spiked (Caco-2 cell layer; [10]) | measured ratio for the higher uptake of allyl HTT compared to 4-MSOB HTT (Caco-2 cell layer; human, Caco-2, 100 μM)
C[S+]([O-])CCCCN1C(=S)SCC1O (stereo not shown) [4-MSOB HTT, 4-hydroxy-3-(4-(methylsulfinyl)butyl)thiazolidine-2-thione] | 21 ± 4% | a new peak was observed | 0.45 ± 0.04 | -0.35 ± 0.04 | 0% | 5% | 11% | 99% | 0% | 1% | 3% | 54% | 
C=CCN1C(=S)SCC1O (stereo not shown) [allyl HTT, 3-allyl-4-hydroxythiazolidine-2-thione] | 18 ± 5% | did not show any additional signals | 8.1 ± 0.4 | 0.91 ± 0.02 | 0% | 39% | 64% | 102% | 1% | 17% | 42% | 96% | 10 fold

From publication PMC9354954, “Assessing Bioavailability and Bioactivity of 4-Hydroxythiazolidine-2-Thiones, Newly Discovered Glucosinolate Degradation Products Formed During Domestic Boiling of Cabbage” (Frontiers in Nutrition, 2022)
